For 34 molecules, Ki results are on record in US20080293771A1, “AZACYCLYLBENZAMIDE DERIVATIVES AS HISTAMINE-3 ANTAGONISTS” (Wyeth, priority 2007, published 2008).

For the experiment, the target named is T1, Human Histamine H3 Receptor (Homo sapiens, UniProt Q9Y5N1).
T1 construct: expressed in transfected cells; host or cells: HEK293T (stably transfected; membrane preparation)
The experiment can be described thus: Methyl histamine binding in Human Histamine H3 Receptor Cell Line. Particulars: read-out: hH3 Binding Ki. As for the experimental part: Evaluation of Methyl histamine binding in Human Histamine H3 Receptor Cell Line
The affinity of test compounds for the histamine 3 (H3) receptor is evaluated in the following manner. […] Cells are scraped from the plate, transferred to centrifuge tubes, washed one time in PBS by centrifugation in a Sorvall RT7 Plus centrifuge (2000 rpm 10 minutes, 4° C.). The resulting pellets are stored at −80° C. until ready for use. Cells are re-suspended in buffer (50 mM Tris pH=7.5) and placed in a Dounce homogenizer, douncing ten times to homogenize cells. The homogenate is spun down by centrifugation (Sorvall RT7 Plus, 1800 rpm 10 minutes, 4° C.). The supernatant is placed in a Corex tube and spun down by centrifugation (Sorvall RC 5c Plus, 17,000 rpm 20 minutes, 4° C.). The pellet is resuspended in buffer (50 mM Tris, pH 7.5). Protein concentration (ug/ul) is determined using the Micro-BCA Protein Determination. The binding assay is set up in a 96 well microtiter plate in a total volume of 250 uL. Non-specific binding is determined in the presence of 10 uM clobenpropit. The final radioligand concentration is 1 nM. The test compound is serially diluted using the Beckman Biomek2000 to a final approximate range of 100 uM to 100 pM. Membranes are suspended in buffer, homogenized in 2 bursts of ten seconds using a Vitris mechanical homogenizer set at power setting 5. Ten μg of membranes are added to each well. Following a one hour incubation at 30° C., the reaction is terminated by the addition of ice cold buffer and rapid filtration with a Packard Filtermate Harvester through a GF/B filter pre-soaked with 1% PEI for one hour. The plate is dried for one hour at 37° C. and 60 μL Microscint Scintillant is added to each well. The CPM per well is measured on a Packard Top Count NXT. Ki values are determined in nM. […] CPM values are expressed as % specific binding and plotted vs compound concentration. A curve is fitted using a four-parameter logistic fit and the IC50 value is determined. The Ki is calculated from this using the Cheng-Prusoff equation: […]=IC50/1+(L/Kd) where L=concentration of free radioligand used in the assay, and Kd is the dissociation constant of the radioligand for the receptor. L is determined for each experiment by counting an aliquot of the diluted radioligand (corresponding to that added to each well) and the Kd has previously been determined under identical conditions for this cell line/radioligand.

Counter-ions that a name gives are not always drawn.

T1 sequence (Q9Y5N1 whole entry): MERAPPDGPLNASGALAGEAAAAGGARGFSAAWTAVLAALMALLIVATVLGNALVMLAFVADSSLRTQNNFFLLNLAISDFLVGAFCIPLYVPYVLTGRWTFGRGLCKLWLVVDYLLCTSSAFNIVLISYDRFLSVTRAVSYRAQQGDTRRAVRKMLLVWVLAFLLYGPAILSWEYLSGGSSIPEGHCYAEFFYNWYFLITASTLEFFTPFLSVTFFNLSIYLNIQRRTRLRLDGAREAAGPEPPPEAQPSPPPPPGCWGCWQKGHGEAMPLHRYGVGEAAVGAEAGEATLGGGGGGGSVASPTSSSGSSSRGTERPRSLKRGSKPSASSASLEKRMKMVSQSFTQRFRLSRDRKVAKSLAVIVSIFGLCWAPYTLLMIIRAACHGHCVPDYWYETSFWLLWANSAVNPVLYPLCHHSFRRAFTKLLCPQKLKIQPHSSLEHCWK

In the case of `CC(C)N1CCC(N(C)C(=O)c2ccc(-n3cccn3)cc2)CC1` [Example 85, N-(1-isopropylpiperidin-4-yl)-N-methyl-4-(1H-pyrazol-1-yl)benzamide], the Ki is greater than 100 nM.

On to `CN(C(=O)c1ccc(Cn2cccn2)cc1)C1CCN(C2CCCC2)CC1` [Example 93, N-(1-cyclopentylpiperidin-4-yl)-N-methyl-4-(1H-pyrazol-1-ylmethyl)benzamide], for which the Ki was greater than 100 nM.

Consider `CC(C)N1CC[C@@H](N(C)C(=O)c2ccc(Cn3ncc4ccccc43)cc2)C1` [Example 76, 4-(1H-indazol-1-ylmethyl)-N-[(3R)-1-isopropylpyrrolidin-3-yl]-N-methylbenzamide], for which the Ki lay in the range of 50.1 to 100 nM.

For the molecule `Cc1nc2cc(C#N)ccc2n1-c1ccc(C(=O)N(C)[C@@H]2CCN(C3CCCC3)C2)cc1` [Example 56, 4-(5-cyano-2-methyl-1H-benzimidazol-1-yl)-N-[(3R)-1-cyclopentylpyrrolidin-3-yl]-N-methylbenzamide], the Ki fell in the range of 10.1 to 50 nM.

Consider `CC(C)N1CC[C@@H](N(C)C(=O)c2ccc(-n3ncc4ccccc43)cc2)C1` [Example 64, 4-(1H-indazol-1-yl)-N-[(3R)-1-isopropylpyrrolidin-3-yl]-N-methylbenzamide], for which the Ki is no more than 10 nM.

On to `Cc1nc2ccccc2n1Cc1ccc(C(=O)N(C)C2CCN(C3CCCC3)CC2)cc1` [Example 48, N-(1-cyclopentylpiperidin-4-yl)-N-methyl-4-[(2-methyl-1H-benzimidazol-1-yl)methyl]benzamide], for which the Ki was greater than 100 nM.

Take `CC(C)N1CCC(N(C)C(=O)c2ccc(Cn3ncc4ccccc43)cc2)CC1` [Example 79, 4-(1H-indazol-1-ylmethyl)-N-(1-isopropylpiperidin-4-yl)-N-methylbenzamide]: the Ki was 50.1 to 100 nM.

Take `Cc1nc2ccccc2n1-c1ccc(C(=O)N(C)[C@@H]2CCN(C(C)C)C2)c(Cl)c1` [Example 105, 2-chloro-N-methyl-4-(2-methyl-1H-benzimidazol-1-yl)-N-[(3R)-1-(1-methylethyl)pyrrolidin-3-yl]benzamide]: the Ki was 10.1 to 50 nM.

On to `CN(C(=O)c1ccc(-n2cc3ccccc3n2)cc1)C1CCN(C2CCC2)CC1` [Example 70, N-(1-cyclobutylpiperidin-4-yl)-4-(2H-indazol-2-yl)-N-methylbenzamide], for which the Ki was greater than 100 nM.

As to `CC(C)N1CC[C@@H](N(C)C(=O)c2ccc(-n3cc4ccccc4n3)cc2)C1` [Example 61, 4-(2H-indazol-2-yl)-N-[(3R)-1-isopropylpyrrolidin-3-yl]-N-methylbenzamide], the Ki was no more than 10 nM.

`CN(C(=O)c1ccc(-n2ncc3ccccc32)cc1)C1CCNCC1` [Example 68]: the Ki was greater than 100 nM.

With `Cc1nc2ccccc2n1-c1ccc(C(=O)N(C)[C@@H]2CCN(C3CCC3)C2)cc1F` [Example 104, N-[(3R)-1-cyclobutylpyrrolidin-3-yl]-3-fluoro-N-methyl-4-(2-methyl-1H-benzimidazol-1-yl)benzamide], the Ki lay in the range of 10.1 to 50 nM.

`Cc1nc2ccccc2n1-c1ccc(C(=O)N(C)C2CCN(C(C)C)CC2)cc1` [Example 31, N-(1-isopropylpiperidin-4-yl)-N-methyl-4-(2-methyl-1H-benzimidazol-1-yl)benzamide]: the Ki is no more than 10 nM.

With `Cc1nc2ccccc2n1-c1ccc(C(=O)N(C)[C@@H]2CCN(C3CCC3)C2)c(Cl)c1` [Example 106, 2-chloro-N-[(3R)-1-cyclobutylpyrrolidin-3-yl]-N-methyl-4-(2-methyl-1H-benzimidazol-1-yl)benzamide], the Ki was 10.1 to 50 nM.

In the case of `Cc1nc2ccccc2n1-c1ccc(C(=O)N(C)C2CCNCC2)cc1` [Example 30, N-Methyl-4-(2-methylbenzimidazol-1-yl)-N-piperidin-4-yl-benzamide Hydrochloride], the Ki is greater than 100 nM.

Turning to `Cc1nc2ccccc2n1-c1ccc(C(=O)N(C)C2CCN(C3CCCC3)CC2)cc1F` [Example 120, N-(1-cyclopentylpiperidin-4-yl)-3-fluoro-N-methyl-4-(2-methyl-1H-benzimidazol-1-yl)benzamide], the Ki fell in the range of 10.1 to 50 nM.

With `CN(C(=O)c1ccc(-n2cc3ccccc3n2)cc1)[C@@H]1CCNC1` [Example 60a, (R)-4-Indazol-2-yl-N-methyl-N-pyrrolidin-3-yl-benzamide], the Ki is greater than 100 nM.

Turning to `Cc1nc2ccccc2n1Cc1ccc(C(=O)N(C)C2CCN(C3CCC3)CC2)cc1` [Example 47, N-(1-cyclobutylpiperidin-4-yl)-N-methyl-4-[(2-methyl-1H-benzimidazol-1-yl)methyl]benzamide], the Ki is greater than 100 nM.

As to `Cc1nc2ccccc2n1Cc1ccc(C(=O)N(C)C2CCN(C(C)C)CC2)cc1` [Example 46, N-(1-isopropylpiperidin-4-yl)-N-methyl-4-[(2-methyl-1H-benzimidazol-1-yl)methyl]benzamide], the Ki fell in the range of 50.1 to 100 nM.

In the case of `CN(C(=O)c1ccc(-n2ncc3ccccc32)cc1)C1CCN(C2CCC2)CC1` [Example 73, N-(1-cyclobutylpiperidin-4-yl)-4-(1H-indazol-1-yl)-N-methylbenzamide], the Ki is greater than 100 nM.

As for `Cc1nc2ccccc2n1-c1ccc(C(=O)N(C)C2CCN(C3CCC3)CC2)cc1` [Example 34, N-(1-cyclobutylpiperidin-4-yl)-N-methyl-4-(2-methyl-1H-benzimidazol-1-yl)benzamide], the Ki was 10.1 to 50 nM.

For the molecule `CN(C(=O)c1ccc(-n2cccn2)cc1)C1CCN(C2CCCC2)CC1` [Example 87, N-(1-cyclopentylpiperidin-4-yl)-N-methyl-4-(1H-pyrazol-1-yl)benzamide], the Ki was greater than 100 nM.

Regarding `CN(C(=O)c1ccc(-n2ncc3ccccc32)cc1)[C@@H]1CCNC1` [Example 60b, (R)-4-Indazol-1-yl-N-methyl-N-pyrrolidin-3-yl-benzamide], the Ki was greater than 100 nM.

As to `CN(C(=O)c1ccc(-n2cc3ccccc3n2)cc1)[C@@H]1CCN(C2CCC2)C1` [Example 62, N-[(3R)-1-cyclobutylpyrrolidin-3-yl]-4-(2H-indazol-2-yl)-N-methylbenzamide], the Ki is no more than 10 nM.

Turning to `Cc1nc2cc(C#N)ccc2n1-c1ccc(C(=O)N(C)[C@@H]2CCN(C(C)C)C2)cc1` [Example 54, 4-(5-cyano-2-methyl-1H-benzimidazol-1-yl)-N-[(3R)-1-isopropylpyrrolidin-3-yl]-N-methylbenzamide], the Ki is no more than 10 nM.

As to `Cc1nc2ccccc2n1Cc1ccc(C(=O)N(C)[C@@H]2CCNC2)cc1` [Example 35, N-Methyl-4-[(2-methylbenzimidazol-1-yl)methyl]-N—(R)-pyrrolidin-3-yl-benzamide Hydrochloride], the Ki was greater than 100 nM.

For the molecule `CN(C(=O)c1ccc(Cn2cnc3ccccc32)cc1)C1CCN(C2CCCC2)CC1` [Example 51, 4-(1H-benzimidazol-1-ylmethyl)-N-(1-cyclopentylpiperidin-4-yl)-N-methylbenzamide], the Ki is greater than 100 nM.

In the case of `CC(C)N1CCC(N(C)C(=O)c2ccc(Cn3cccn3)cc2)CC1` [Example 91, N-methyl-N-[1-(1-methylethyl)piperidin-4-yl]-4-(1H-pyrazol-1-ylmethyl)benzamide], the Ki is greater than 100 nM.

Take `CC(C)N1CCC(N(C)C(=O)c2ccc(-n3cc4ccccc4n3)cc2)CC1` [Example 69, 4-(2H-indazol-2-yl)-N-(1-isopropylpiperidin-4-yl)-N-methylbenzamide]: the Ki lay within 50.1 to 100 nM.

Take `CN(C(=O)c1ccc(Cn2ncc3ccccc32)cc1)C1CCN(C2CCC2)CC1` [Example 80, N-(1-cyclobutylpiperidin-4-yl)-4-(1H-indazol-1-ylmethyl)-N-methylbenzamide]: the Ki was greater than 100 nM.

Turning to `CN(C(=O)c1ccc(-n2cc3ccccc3n2)cc1)[C@@H]1CCN(C2CCCC2)C1` [Example 63, N-[(3R)-1-cyclopentylpyrrolidin-3-yl]-4-(2H-indazol-2-yl)-N-methylbenzamide], the Ki was no more than 10 nM.

Turning to `Cc1nc2ccccc2n1-c1ccc(C(=O)N(C)C2CCN(C3CCCC3)CC2)cc1` [Example 32, N-(1-cyclopentylpiperidin-4-yl)-N-methyl-4-(2-methyl-1H-benzimidazol-1-yl)benzamide], the Ki is no more than 10 nM.

Regarding `Cc1nc2ccccc2n1Cc1ccc(C(=O)N(C)[C@@H]2CCN(C3CCCCC3)C2)cc1` [Example 40, N-[(3R)-1-cyclohexylpyrrolidin-3-yl]-N-methyl-4-[(2-methyl-1H-benzimidazol-1-yl)methyl]benzamide], the Ki fell in the range of 10.1 to 50 nM.

On to `Cc1nc2ccccc2n1-c1ccc(C(=O)N[C@@H]2CCN(C3CCCCC3)C2)cc1` [Example 137, N-[(3R)-1-cyclohexylpyrrolidin-3-yl]-4-(2-methyl-1H-benzimidazol-1-yl)benzamide], for which the Ki is greater than 100 nM.

As a reminder, the Ki is the equilibrium dissociation constant of an inhibitor or competing ligand from its target.
